# Assay results taken from patent US4048307A, “Cyclic adenosine monophosphate 8-substituted derivatives” (priority 1974, dated 1977).
# What was measured:
# [1] = target: Hog Brain Phosphodiesterase (PDE); experiment: Inhibition of c-AMP hydrolysis by hog brain phosphodiesterase (PDE); assay type: biochemical; conditions: for Ki: Lineweaver-Burk plot slope and Dixon plot cross-point, read-out: Inhibition II: Inhibition Constant (Ki); for Inhibition I: Relative Inhibition: c-AMP 1.0, derivative 1.0 millimole/liter
# Procedure: **PDE inhibition was evaluated based on the relative inhibition observed
# when the sample compound was added at the same molar concentration as tha
# of the substrate (1 millimole/liter) and the inhibition constant (ki)
# calculated according to the enzymological method (Lineweaver-Burk plot).
# The enzyme purification was conducted by ammonium sulfate fractionation and passage through DEAE cellulose column according to the modification of the method of T. S. Teo, T. T. Wang et al. (J. Biol. Chemi. 248, 585). […] Reaction and analysis were carried out as taught by Bucher and Sutherland [J. Biol. Chemi., 237, 1244 (1962)].
# *: The values were calculated according the following equation: 100
# containing no inhibitor.
# **: Ki values were calculated from the slope of Lineweaver-Burk plot and
# the cross-point of Dixon plot.?
# CHO-Ki cells [2] = experiment: Reverse transformation of cultured CHO-Ki cells (c-AMP level elevation, membrane permeability by L.R.C.); assay type: cell-based, Chinese hamster; conditions: for minimal effective concentration: Cricetulus griseus, microscopic analysis after 16 and 30 hours, read-out: L.R.C. (limiting reverse-transformable concentration)
# Procedure: We utilized their test system and tested new derivatives as regards the following two properties:
# The tests were conducted in the following manner according to the modification of the method of Hsie and Puck:
# 2. The membrane permeability was evaluated based on the reverse transformation. More specifically, new derivatives were added at a concentration of 10^-3, 5 × 10^-2, 10^-1, 2× 10^-1, 5 × 10^-1 or 1 millimole/liter to the above-mentionedmedium. After 16 and 30 hours, microscopic analysis was conducted, and the limiting reverse-transformable concentration (referred to as "L.R.C.") was determined and the membrane permeability was evaluated, based on the so determined L.R.C. value.
# ***The membrane permeability was determined based on the minimum
# concentration causing the re-transformation of cultured CHO-Ki cells. (Th
# [3] = system: Hog Brain Phosphodiesterase (PDE); experiment: Inhibition of c-AMP hydrolysis by hog brain phosphodiesterase (PDE); assay type: biochemical; conditions: c-AMP 1.0, derivative 0.5 millimole/liter
# protein kinases = conditions: Hsie and Puck; cited from earlier work
# CHO-Ki cells [4] = conditions: 10^-3 mole/liter; Hsie and Puck; cited from earlier work
# [5] = system: Hog Brain Phosphodiesterase (PDE); conditions: Hsie and Puck; cited from earlier work
SMILES,Ki [1] [µM],Inhibition I: Relative Inhibition [1] [%],Inhibition I: Relative Inhibition [3] [%],minimal effective concentration (CHO-Ki cells [2]) [µM],Toxic (remark at 10^-3 mole/liter) (CHO-Ki cells [2]),protein kinase activation (literature) (protein kinases),reverse transformation of CHO-Ki (literature) (CHO-Ki cells [4]),PDE inhibition (literature) [5]
"CCCNc1nc2c(N)ncnc2n1[C@@H]1O[C@@H]2COP(=O)(O)O[C@H]2[C@H]1O [8-CH3 (CH2)2 NH-c-AMP, 8-n-propylamino-c-AMP]",230,51.1,–,–,–,–,–,–
"CCCSc1nc2c(N)ncnc2n1[C@@H]1O[C@@H]2COP(=O)(O)O[C@H]2[C@H]1O [8-CH3 (CH2)2 S-c-AMP, 8-n-propylmercapto-c-AMP]",78,60.1,–,~400,–,–,–,–
"CCCCNc1nc2c(N)ncnc2n1[C@@H]1O[C@@H]2COP(=O)(O)O[C@H]2[C@H]1O [8-CH3 (CH2)3 NH-c-AMP, 8-n-butylamino-c-AMP]",120,55.6,–,~300,–,–,–,–
"CCCCSc1nc2c(N)ncnc2n1[C@@H]1O[C@@H]2COP(=O)(O)O[C@H]2[C@H]1O [8-CH3 (CH2)3 S-c-AMP, 8-n-butylmercapto-c-AMP]",74,64.3,–,~400,–,–,–,–
"CCCCCNc1nc2c(N)ncnc2n1[C@@H]1O[C@@H]2COP(=O)(O)O[C@H]2[C@H]1O [8-CH3 (CH2)4 NH-c-AMP, 8-n-pentylamino-c-AMP]",72,62.3,–,–,–,–,–,–
"CCCCCSc1nc2c(N)ncnc2n1[C@@H]1O[C@@H]2COP(=O)(O)O[C@H]2[C@H]1O [8-CH3 (CH2)4 S-c-AMP, 8-n-amylmercapto-c-AMP]",40,76.7,–,400,–,–,–,–
"CCCCCCNc1nc2c(N)ncnc2n1[C@@H]1O[C@@H]2COP(=O)(O)O[C@H]2[C@H]1O [8-CH3 (CH2)5 NH-c-AMP, 8-n-hexylamino-c-AMP]",58,76.1,–,–,–,–,–,–
"CCCCCCSc1nc2c(N)ncnc2n1[C@@H]1O[C@@H]2COP(=O)(O)O[C@H]2[C@H]1O [8-CH3 (CH2)5 S-c-AMP, 8-n-hexylmercapto-c-AMP]",19,92.4,–,300,–,–,–,–
"CCCCCCCNc1nc2c(N)ncnc2n1[C@@H]1O[C@@H]2COP(=O)(O)O[C@H]2[C@H]1O [8-CH3 (CH2)6 NH-c-AMP, 8-n-heptylamino-c-AMP]",26,78.2,–,–,–,–,–,–
"CCCCCCCSc1nc2c(N)ncnc2n1[C@@H]1O[C@@H]2COP(=O)(O)O[C@H]2[C@H]1O [8-CH3 (CH2)6 S-c-AMP, 8-n-heptylmercapto-c-AMP]",–,–,90.4,300,–,–,–,–
"CCCCCCCCNc1nc2c(N)ncnc2n1[C@@H]1O[C@@H]2COP(=O)(O)O[C@H]2[C@H]1O [8-CH3 (CH2)7 NH-c-AMP, 8-n-octylamino-c-AMP]",–,–,80.0,–,–,–,–,–
"CCCCCCCCSc1nc2c(N)ncnc2n1[C@@H]1O[C@@H]2COP(=O)(O)O[C@H]2[C@H]1O [8-CH3 (CH2)7 S-c-AMP, 8-n-octylmercapto-c-AMP]",16,95.0,–,20,Toxic,–,–,–
"CCCCCCCCCNc1nc2c(N)ncnc2n1[C@@H]1O[C@@H]2COP(=O)(O)O[C@H]2[C@H]1O [8-CH3 (CH2)8 NH-c-AMP, 8-n-nonylamino-c-AMP]",27,–,71.3,–,–,–,–,–
"CCCCCCCCCSc1nc2c(N)ncnc2n1[C@@H]1O[C@@H]2COP(=O)(O)O[C@H]2[C@H]1O [8-CH3 (CH2)8 S-c-AMP, 8-n-nonylmercapto-c-AMP]",31,–,74.9,10,Toxic,–,–,–
"CCCC(=O)Nc1ncnc2c1ncn2[C@@H]1O[C@@H]2COP(=O)(O)O[C@H]2[C@H]1OC(=O)CCC [N^6,O^2' -dibutyryl-c-AMP]",–,–,–,–,–,activate protein kinases,reversely transformed from the epitherial form to the fibroblast form,inhibits PDE to elevate the intracellular c-AMP level

# Further lines, with some results ahead:
Ki [1] [µM],Inhibition I: Relative Inhibition [1] [%],Inhibition I: Relative Inhibition [3] [%],SMILES,minimal effective concentration (CHO-Ki cells [2]) [µM],Toxic (remark at 10^-3 mole/liter) (CHO-Ki cells [2]),protein kinase activation (literature) (protein kinases),reverse transformation of CHO-Ki (literature) (CHO-Ki cells [4]),PDE inhibition (literature) [5]
82,–,67.6,"CCCCCCCCCCNc1nc2c(N)ncnc2n1[C@@H]1O[C@@H]2COP(=O)(O)O[C@H]2[C@H]1O [8-CH3 (CH2)9 NH-c-AMP, 8-n-decylamino-c-AMP]",~80,Toxic,–,–,–
46,–,68.2,"CCCCCCCCCCSc1nc2c(N)ncnc2n1[C@@H]1O[C@@H]2COP(=O)(O)O[C@H]2[C@H]1O [8-CH3 (CH2)9 S-c-AMP, 8-n-decylmercapto-c-AMP]",< 5,Toxic,–,–,–
170,–,51.4,"CCCCCCCCCCCNc1nc2c(N)ncnc2n1[C@@H]1O[C@@H]2COP(=O)(O)O[C@H]2[C@H]1O [8-CH3 (CH2)10 NH-c-AMP, 8-n-undecylamino-c-AMP]",~50,Toxic,–,–,–
88,39.1,–,"CCCCCCCCCCCSc1nc2c(N)ncnc2n1[C@@H]1O[C@@H]2COP(=O)(O)O[C@H]2[C@H]1O [8-CH3 (CH2)10 S-c-AMP, 8-n-undecylmercapto-c-AMP]",< 5,Toxic,–,–,–
660,–,18.3,"CCCCCCCCCCCCNc1nc2c(N)ncnc2n1[C@@H]1O[C@@H]2COP(=O)(O)O[C@H]2[C@H]1O [8-CH3 (CH2)11 NH-c-AMP, 8-n-dodecylamino-c-AMP]",~70,Toxic,–,–,–
140,26.4,–,"CCCCCCCCCCCCSc1nc2c(N)ncnc2n1[C@@H]1O[C@@H]2COP(=O)(O)O[C@H]2[C@H]1O [8-CH3 (CH2)11 S-c-AMP, 8-n-dodecylmercapto-c-AMP]",< 5,Toxic,–,–,–
840,–,11.3,"CCCCCCCCCCCCCNc1nc2c(N)ncnc2n1[C@@H]1O[C@@H]2COP(=O)(O)O[C@H]2[C@H]1O [8-CH3 (CH2)12 NH-c-AMP, 8-n-tridecylamino-c-AMP]",~90,Toxic,–,–,–
210,47.6,–,"CNc1nc2c(N)ncnc2n1[C@@H]1O[C@@H]2COP(=O)(O)O[C@H]2[C@H]1O [8-CH3 NH-c-AMP, 8-methylamino-c-AMP, reference compound]",~500,–,–,–,–
470,38.9,–,"Nc1ncnc2c1nc(Br)n2[C@@H]1O[C@@H]2COP(=O)(O)O[C@H]2[C@H]1O [Example 8-Br-c-AMP, 8-bromo-c-AMP, reference compound]",~200,–,–,–,–
